Measurements published in the supplement of paper PMC10307832.

What was measured:
Experiment in all cases: relative viability (nuclei count vs DMSO), 5 days (fraction); higher = more cells survive
[1] = compound: COc1cc(Nc2ncc3c(n2)-c2ccc(Cl)cc2C(c2c(F)cccc2OC)=NC3)ccc1C(=O)O [Alisertib] + NC(=O)Nc1cc(-c2cccc(F)c2)sc1C(=O)N[C@H]1CCCNC1 [AZD7762] (partner 0.2 µM)
Method in brief: (§1)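 Medians of duplicate plates are given as relative viability. That measure is the nuclei count in treated wells divided by the count in vehicle wells. Counts were taken on 4× images of lung cancer cell lines in 1536-well plates, 5 days after pin-tool dosing the day after seeding with one drug alone or a fixed anchor-drug dose plus five library-drug doses (not always all listed) in √10 steps.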

[2] = compound: COc1cc(Nc2ncc3c(n2)-c2ccc(Cl)cc2C(c2c(F)cccc2OC)=NC3)ccc1C(=O)O [Alisertib] + CC(C)C[C@H](NC(=O)[C@H](Cc1ccccc1)NC(=O)c1cnccn1)B(O)O [Bortezomib] (partner 0.002 µM)
Method in brief: as §1

[3] = compound: COc1cc(Nc2ncc3c(n2)-c2ccc(Cl)cc2C(c2c(F)cccc2OC)=NC3)ccc1C(=O)O [Alisertib] + CS(=O)(=O)N1CCN(Cc2cc3nc(-c4cccc5[nH]ncc45)nc(N4CCOCC4)c3s2)CC1 [Pictilisib] (partner 1 µM)
Method in brief: as §1

[4] = compound: COc1cc(Nc2ncc3c(n2)-c2ccc(Cl)cc2C(c2c(F)cccc2OC)=NC3)ccc1C(=O)O [Alisertib] + C[C@]1(O)C[C@@H](c2nc(-c3ccc4ccc(-c5ccccc5)nc4c3)c3c(N)nccn32)C1 [Linsitinib] (partner 1 µM)
Method in brief: as §1

[5] = compound: COc1cc(Nc2ncc3c(n2)-c2ccc(Cl)cc2C(c2c(F)cccc2OC)=NC3)ccc1C(=O)O [Alisertib] + O=C(c1cc(Cc2n[nH]c(=O)c3ccccc23)ccc1F)N1CCN(C(=O)C2CC2)CC1 [Olaparib] (partner 8 µM)
Method in brief: as §1

[6] = compound: COc1cc(Nc2ncc3c(n2)-c2ccc(Cl)cc2C(c2c(F)cccc2OC)=NC3)ccc1C(=O)O [Alisertib] + C[C@@H](Oc1cc(-c2cnn(C3CCNCC3)c2)cnc1N)c1c(Cl)ccc(F)c1Cl [Crizotinib] (partner 1 µM)
Method in brief: as §1

[7] = compound: COc1cc(Nc2ncc3c(n2)-c2ccc(Cl)cc2C(c2c(F)cccc2OC)=NC3)ccc1C(=O)O [Alisertib] + CC1(C)CCC(c2ccc(Cl)cc2)=C(CN2CCN(c3ccc(C(=O)NS(=O)(=O)c4ccc(N[C@H](CCN5CCOCC5)CSc5ccccc5)c(S(=O)(=O)C(F)(F)F)c4)cc3)CC2)C1 [Navitoclax] (partner 0.5 µM)
Method in brief: as §1

[8] = compound: COc1cc(Nc2ncc3c(n2)-c2ccc(Cl)cc2C(c2c(F)cccc2OC)=NC3)ccc1C(=O)O [Alisertib] + COc1cc2c(Oc3ccc(NC(=O)C4(C(=O)Nc5ccc(F)cc5)CC4)cc3F)ccnc2cc1OCCCN1CCOCC1 [Foretinib] (partner 0.25 µM)
Method in brief: as §1

[9] = compound: COc1cc(Nc2ncc3c(n2)-c2ccc(Cl)cc2C(c2c(F)cccc2OC)=NC3)ccc1C(=O)O [Alisertib] + Cc1nc(NC(=O)N2CCC[C@H]2C(N)=O)sc1-c1ccnc(C(C)(C)C(F)(F)F)c1 [Alpelisib] (partner 2 µM)
Method in brief: as §1

[10] = compound: COc1cc(Nc2ncc3c(n2)-c2ccc(Cl)cc2C(c2c(F)cccc2OC)=NC3)ccc1C(=O)O [Alisertib] + CS(=O)(=O)CCNCc1ccc(-c2ccc3ncnc(Nc4ccc(OCc5cccc(F)c5)c(Cl)c4)c3c2)o1 [Lapatinib] (partner 2 µM)
Method in brief: as §1

[11] = compound: COc1cc(Nc2ncc3c(n2)-c2ccc(Cl)cc2C(c2c(F)cccc2OC)=NC3)ccc1C(=O)O [Alisertib]
Method in brief: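 In 1536-well plates, lung cancer cell lines rested overnight at 37 °C before five library-drug doses (not always all listed), √10 apart, were pinned onto vehicle-anchored plates. Nuclei were counted with MetaXpress from 4× Hoechst images taken after 5 days without medium change. Viability compares treated-well with vehicle-well nuclei as a median over plates, and plates needed control CV below 25% plus at least one doubling to pass.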

NCI-H1703
relative viability ([1]; first compound 0.005 µM): 0.119
relative viability ([1]; first compound 0.01581 µM): 0.134
relative viability ([1]; first compound 0.05 µM): 0.115
relative viability ([1]; first compound 0.1581 µM): 0.0952
relative viability ([1]; first compound 0.5 µM): 0.0979
relative viability ([2]; first compound 0.005 µM): 0.337
relative viability ([2]; first compound 0.01581 µM): 0.287
relative viability ([2]; first compound 0.05 µM): 0.134
relative viability ([2]; first compound 0.1581 µM): 0.147
relative viability ([2]; first compound 0.5 µM): 0.102
relative viability ([3]; first compound 0.005 µM): 0.246
relative viability ([3]; first compound 0.01581 µM): 0.22
relative viability ([3]; first compound 0.05 µM): 0.182
relative viability ([3]; first compound 0.1581 µM): 0.163
relative viability ([3]; first compound 0.5 µM): 0.155
relative viability ([4]; first compound 0.005 µM): 0.65
relative viability ([4]; first compound 0.01581 µM): 0.626
relative viability ([4]; first compound 0.05 µM): 0.563
relative viability ([4]; first compound 0.1581 µM): 0.177
relative viability ([4]; first compound 0.5 µM): 0.164
relative viability ([5]; first compound 0.005 µM): 0.534
relative viability ([5]; first compound 0.01581 µM): 0.387
relative viability ([5]; first compound 0.05 µM): 0.198
relative viability ([5]; first compound 0.1581 µM): 0.153
relative viability ([5]; first compound 0.5 µM): 0.141
relative viability ([6]; first compound 0.005 µM): 0.711
relative viability ([6]; first compound 0.01581 µM): 0.501
relative viability ([6]; first compound 0.05 µM): 0.294
relative viability ([6]; first compound 0.1581 µM): 0.37
relative viability ([6]; first compound 0.5 µM): 0.113
relative viability ([7]; first compound 0.005 µM): 1.2
relative viability ([7]; first compound 0.01581 µM): 0.837
relative viability ([7]; first compound 0.05 µM): 0.317
relative viability ([7]; first compound 0.1581 µM): 0.156
relative viability ([7]; first compound 0.5 µM): 0.126
relative viability ([8]; first compound 0.005 µM): 0.313
relative viability ([8]; first compound 0.01581 µM): 0.379
relative viability ([8]; first compound 0.05 µM): 0.29
relative viability ([8]; first compound 0.1581 µM): 0.248
relative viability ([8]; first compound 0.5 µM): 0.201
relative viability ([9]; first compound 0.005 µM): 0.298
relative viability ([9]; first compound 0.01581 µM): 0.311
relative viability ([9]; first compound 0.05 µM): 0.211
relative viability ([9]; first compound 0.1581 µM): 0.157
relative viability ([9]; first compound 0.5 µM): 0.18
relative viability ([10]; first compound 0.005 µM): 1.11
relative viability ([10]; first compound 0.01581 µM): 0.721
relative viability ([10]; first compound 0.05 µM): 0.217
relative viability ([10]; first compound 0.1581 µM): 0.262
relative viability ([10]; first compound 0.5 µM): 0.137
relative viability ([11]; 0.005 µM): 0.871
relative viability ([11]; 0.01581 µM): 0.721
relative viability ([11]; 0.05 µM): 0.57
relative viability ([11]; 0.1581 µM): 0.241
relative viability ([11]; 0.5 µM): 0.143
